Data as given in patent publication US11279733B2, “Peptide antibiotics” (priority 2017, dated 2022).
Converted amounts (≈) assume the structure as drawn. Positions of bridges follow the written chain, without caps; N, C: chain ends. Non-standard residues stand in square brackets, D forms with d. Residues, ends and D or L forms follow the SMILES beside them. *: point of attachment. Isonicotinoyl(2-Ph) = O=C(c1ccnc(-c2ccccc2)c1)*; Decanoyl(3R-OH) = CCCCCCC[C@@H](O)CC(=O)*; dPhe(4-NH2) = Nc1ccc(C[C@@H](N)C(=O)O)cc1; d3Pal = N[C@H](Cc1cccnc1)C(=O)O; X11 = CCCCCCCNc1ccc(C(=O)*)cc1; X9 = CCCCCC1CCC(C(=O)*)CC1; dOrn = NCCC[C@@H](N)C(=O)O; dDab = NCC[C@@H](N)C(=O)O; Octanoyl = CCCCCCCC(=O)*; Dab = NCC[C@H](N)C(=O)O

What was measured:
A. baumannii ATCC 19606 = settings: ATCC 19606
Summary of the method: (§1)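 Mid-log cultures grown in Mueller Hinton broth at 37° C were tested by 2-fold broth microdilution at 5×10^5 CFU/mL final. Compounds were dissolved in water and tested over a final range of 32 to 0.015 μg/mL.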

A. baumannii GN_093 PmxR = settings: GN 093 PmxR
Summary of the method: as §1

E. coli ATCC 25922 = settings: ATCC 25922
Summary of the method: as §1

K. pneumoniae ATCC 13883 = settings: ATCC 13883
Summary of the method: as §1

[1] = system: K. pneumoniae ATCC 700603, MDR; settings: ATCC 700603
Summary of the method: as §1

[2] = system: K. pneumoniae ATCC BAA-2146, NDM-1 pos; settings: ATCC BAA-2146
Summary of the method: as §1

[3] = system: K. pneumoniae GN_102 PmxR; settings: GN 102 PmxR
Summary of the method: as §1

[4] = system: K. pneumoniae GN_106, PmxR; settings: GN 106, PmxR
Summary of the method: as §1

P. aeruginosa ATCC 27853 = settings: ATCC 27853
Summary of the method: as §1

[5] = system: P. aeruginosa GN_043, PmxR; settings: P. aeruginosa GN_043, PmxR
Summary of the method: as §1

[6] = system: P. aeruginosa GN_105, PmxR; settings: GN 105, PmxR
Summary of the method: as §1

[7] = system: S. aureus ATCC 25923, MSSA; settings: ATCC 25923
Summary of the method: as §1

in vitro = settings: human
Summary of the method: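 HK2 cells were seeded at 2000 per well in DMEM/F12 with 10% FBS and left to attach for 24 h at 37 °C, 5% CO2. They were then exposed for 24 h to 3-fold peptide dilutions starting from 600 μM solutions in quadruplicate. LDH release was read at 450 nm, and CC50 was fitted from dose-response curves.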

| Compound | MIC A. baumannii ATCC 19606 (A. baumannii ATCC 19606) [µg/mL] | MIC A. baumannii GN_093 PmxR (A. baumannii GN_093 PmxR) [µg/mL] | MIC E. coli ATCC 25922 (E. coli ATCC 25922) [µg/mL] | MIC K. pneumoniae ATCC 13883 (K. pneumoniae ATCC 13883) [µg/mL] | MIC K. pneumoniae ATCC 700603, MDR [1] [µg/mL] | MIC K. pneumoniae ATCC BAA-2146, NDM-1 pos [2] [µg/mL] | MIC K. pneumoniae GN_102 PmxR [3] [µg/mL] | MIC K. pneumoniae GN_106, PmxR [4] [µg/mL] | MIC P. aeruginosa ATCC 27853 (P. aeruginosa ATCC 27853) [µg/mL] | MIC P. aeruginosa GN_043, PmxR [5] [µg/mL] | MIC P. aeruginosa GN_105, PmxR [6] [µg/mL] | MIC S. aureus ATCC 25923, MSSA [7] [µg/mL] | CC50 at 24 h (in vitro) [µM] |
| --- | --- | --- | --- | --- | --- | --- | --- | --- | --- | --- | --- | --- | --- |
| CCCCCCC[C@@H](O)CC(=O)N[C@H](CCCN)C(=O)N[C@H]1CCNC(=O)[C@H]([C@@H](C)O)NC(=O)[C@H](CCN)NC(=O)[C@H](CCN)NC(=O)[C@H](CC(C)C)NC(=O)[C@@H](Cc2ccccc2)NC(=O)[C@H](CCN)NC1=O [compound 6396, 3(R)OH-nC9CO-D-Orn-cyc[L-Dab-L-Dab-D-Phe-L-Leu-L-Dab-L-Dab-L-Thr]] ({Decanoyl(3R-OH)}-[dOrn][Dab][Dab][dF]L[Dab][Dab]T; lactam 2-C) | >64 | >32 | 16 (≈ 15.3 µM) | >64 | 16 (≈ 15.3 µM) | 32 (≈ 30.6 µM) | >32 | >32 | 16 (≈ 15.3 µM) | 16 (≈ 15.3 µM) | 16 (≈ 15.3 µM) | >32 | > 300 |
| CCCCCCC[C@@H](O)CC(=O)N[C@H](Cc1ccc(N)cc1)C(=O)N[C@H]1CCNC(=O)[C@H]([C@@H](C)O)NC(=O)[C@H](CCN)NC(=O)[C@H](CCN)NC(=O)[C@H](CC(C)C)NC(=O)[C@@H](Cc2ccccc2)NC(=O)[C@H](CCN)NC1=O [compound 6397, 3(R)OH-nC9CO-D-4NH2Phe-cyc[L-Dab-L-Dab-D-Phe-L-Leu-L-Dab-L-Dab-L-Thr]] ({Decanoyl(3R-OH)}-[dPhe(4-NH2)][Dab][Dab][dF]L[Dab][Dab]T; lactam 2-C) | >64 | >32 | >64 | >64 | >64 | >64 | >32 | >32 | >64 | >32 | >32 | >32 | > 300 |
| CCCCCCC[C@@H](O)CC(=O)N[C@H](Cc1cccnc1)C(=O)N[C@H]1CCNC(=O)[C@H]([C@@H](C)O)NC(=O)[C@H](CCN)NC(=O)[C@H](CCN)NC(=O)[C@H](CC(C)C)NC(=O)[C@@H](Cc2ccccc2)NC(=O)[C@H](CCN)NC1=O [compound 6398, 3(R)OH-nC9CO-D-3PyPhe-cyc[L-Dab-L-Dab-D-Phe-L-Leu-L-Dab-L-Dab-L-Thr]] ({Decanoyl(3R-OH)}-[d3Pal][Dab][Dab][dF]L[Dab][Dab]T; lactam 2-C) | >64 | >32 | >64 | >64 | >64 | >64 | 32 (≈ 29.6 µM) | >32 | 32 (≈ 29.6 µM) | >32 | >32 | >32 | > 300 |
| CCCCCCCC(=O)N[C@H](CCN)C(=O)N[C@H]1CCNC(=O)[C@H]([C@@H](C)O)NC(=O)[C@H](CCN)NC(=O)[C@H](CCN)NC(=O)[C@H](CC(C)C)NC(=O)[C@@H](Cc2ccccc2)NC(=O)[C@H](CCN)NC1=O [compound 6399, nC7CO-D-Dab-cyc[L-Dab-L-Dab-D-Phe-L-Leu-L-Dab-L-Dab-L-Thr]] (Octanoyl-[dDab][Dab][Dab][dF]L[Dab][Dab]T; lactam 2-C) | >32 | >32 | 8 (≈ 8.1 µM) | >32 | 16 (≈ 16.2 µM) | >32 | >32 | >32 | 1 (≈ 1.01 µM) | 8 (≈ 8.1 µM) | >32 | >32 | > 300 |
| CCCCCCCNc1ccc(C(=O)N[C@H](CCN)C(=O)N[C@H]2CCNC(=O)[C@H]([C@@H](C)O)NC(=O)[C@H](CCN)NC(=O)[C@H](CCN)NC(=O)[C@H](CC(C)C)NC(=O)[C@@H](Cc3ccccc3)NC(=O)[C@H](CCN)NC2=O)cc1 [compound 6403, 4(C7H15NH)PheCO-D-Dab-cyc[L-Dab-L-Dab-D-Phe-L-Leu-L-Dab-L-Dab-L-Thr]] (X11-[dDab][Dab][Dab][dF]L[Dab][Dab]T; lactam 2-C) | >64 | >32 | >64 | >64 | >64 | >64 | >32 | >32 | 16 (≈ 14.8 µM) | 32 (≈ 29.6 µM) | >32 | >32 | > 300 |
| CCCCCC1CCC(C(=O)N[C@H](CCN)C(=O)N[C@H]2CCNC(=O)[C@H]([C@@H](C)O)NC(=O)[C@H](CCN)NC(=O)[C@H](CCN)NC(=O)[C@H](CC(C)C)NC(=O)[C@@H](Cc3ccccc3)NC(=O)[C@H](CCN)NC2=O)CC1 (stereo partly drawn) [compound 6404, C11H21CO-D-Dab-cyc[L-Dab-L-Dab-D-Phe-L-Leu-L-Dab-L-Dab-L-Thr]] (X9-[dDab][Dab][Dab][dF]L[Dab][Dab]T; lactam 2-C) | 64 (≈ 61.4 µM) | >32 | 1 (≈ 0.959 µM) | 16 (≈ 15.4 µM) | 0.5 (≈ 0.48 µM) | 1 (≈ 0.959 µM) | >32 | >32 | 0.25 (≈ 0.24 µM) | 32 (≈ 30.7 µM) | 8 (≈ 7.68 µM) | 8 (≈ 7.68 µM) | 38 |
| CC(C)C[C@@H]1NC(=O)[C@@H](Cc2ccccc2)NC(=O)[C@H](CCN)NC(=O)[C@@H](NC(=O)[C@@H](CCN)NC(=O)c2ccnc(-c3ccccc3)c2)CCNC(=O)[C@H]([C@@H](C)O)NC(=O)[C@H](CCN)NC(=O)[C@H](CCN)NC1=O [compound 6405, 3Phe4-PyCO-D-Dab-cyc[L-Dab-L-Dab-D-Phe-L-Leu-L-Dab-L-Dab-L-Thr]] ({Isonicotinoyl(2-Ph)}-[dDab][Dab][Dab][dF]L[Dab][Dab]T; lactam 2-C) | >64 | >32 | >64 | >64 | >64 | >64 | >32 | >32 | 8 (≈ 7.67 µM) | >32 | >32 | >32 | > 300 |
